These results are taken from patent US11712433B2, “Compositions comprising PKM2 modulators and methods of treatment using the same” (priority 2019, dated 2023).

One series relates to A549 lung cancer cells. Put plainly: A549 xenograft, traditional versus serine- and glycine-depleted diet (Example 4). The format is in vivo, athymic nude mice. The settings on record: 100 mpk oral gavage qd x 21. The text has this:
The traditional diet control was the Baker Amino Acid diet (catalog #5CC7, Test Diet) and the depleted diet was a modified Baker Amino Acid diet which compensated for serine and glycine depletion with increases in all remaining amino acids (catalog #5BJX, Test Diet).

A further series concerns MC38 tumors. Put plainly: Metabolite levels in treated versus vehicle-treated MC38 tumors. The format is in vivo, mice. The conditions noted are these: treated compared to vehicle-treated MC38 tumors. The text has this: Potential downstream biomarkers, including metabolism, immune gene alterations and immune phenotyping are currently under evaluation using LC-MS/MS, NanoString and flow cytometry.

The test system of another series is A549 cells. The series can be described thus: GSH-Glo glutathione levels in A549 cells (Example 10). The format is cell-based. The settings on record: concentration of 10, 24 hours, relative to DMSO. The procedure: A549 cells were prepared according to Example 3 above. […] Cells were treated for 24 hours, and then glutathione levels were determined using a GSH-Glo assay kit and procedure from Promega (catalog #V6912).

On to `Nc1cccc(F)c1CN(CCC1CCS(=O)(=O)CC1)C(=O)c1cc(C(F)(F)F)n[nH]1` [compound of Structure (I)], for which, in the series with A549 lung cancer cells, the body weight result is “no significant body weight reduction or fluctuation”. In the series on A549 lung cancer cells (serine- and glycine-depleted diet versus traditional diet), the tumor volume result was “best reduction of tumor volume”. Further, in the series with MC38 tumors, the “levels of glucose 6-phosphate in tumors” value is “decreased”, the “levels of glucose in tumors” value is “Increased”, the “levels of lactate in tumors” value is given as “decreased” and the “levels of phosphoenolpyruvate in tumors” value is listed as “decreased”. In the series with MC38 tumors, the “levels of phosphoglycerate in tumors” value was “decreased”. Further, in the series on A549 cells, the glutathione levels result is reported as “decreased levels of glutathione”.
